Experimental data taken from PubChem BioAssay AID2060895 (Molecular Pharmacology Branch, DTP, NCI, 2025).

Tested on: PDC 899932-113-R3-J6 complex spheroid viability
Assay: Anticancer human tumor 899932-113-R3-J6-PDC patient-derived melanoma cell line growth inhibition [RAS]
Conditions: for IC50: curve of first compound; for viability, T/C: stronger effect = lower value
Outline: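 Tumour cells grown as complex spheroids with HUVEC endothelial cells and mesenchymal stem cells, treated with RAS pathway inhibitor combinations. Each agent spans half-log steps from near clinical Cmax, or 10 microM where Cmax is unknown.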

[1] = second compound 0.000949 µM, first compound 0.000949 µM
[2] = second compound 0.000949 µM, first compound 0.003 µM
[3] = second compound 0.000949 µM, first compound 0.00949 µM
[4] = second compound 0.000949 µM, first compound 0.03 µM
[5] = second compound 0.000949 µM, first compound 0.0949 µM
[6] = second compound 0.000949 µM, first compound 0.3 µM
[7] = second compound 0.003 µM, first compound 0.000949 µM
[8] = second compound 0.003 µM, first compound 0.003 µM
[9] = second compound 0.003 µM, first compound 0.00949 µM
[10] = second compound 0.003 µM, first compound 0.03 µM
[11] = second compound 0.003 µM, first compound 0.0949 µM
[12] = second compound 0.003 µM, first compound 0.3 µM
[13] = second compound 0.00949 µM, first compound 0.000949 µM
[14] = second compound 0.00949 µM, first compound 0.003 µM
[15] = second compound 0.00949 µM, first compound 0.00949 µM
[16] = second compound 0.00949 µM, first compound 0.03 µM
[17] = second compound 0.00949 µM, first compound 0.0949 µM
[18] = second compound 0.00949 µM, first compound 0.3 µM
[19] = second compound 0.03 µM, first compound 0.000949 µM
[20] = second compound 0.03 µM, first compound 0.003 µM
[21] = second compound 0.03 µM, first compound 0.00949 µM
[22] = second compound 0.03 µM, first compound 0.03 µM
[23] = second compound 0.03 µM, first compound 0.0949 µM
[24] = second compound 0.03 µM, first compound 0.3 µM
[25] = second compound 0.0949 µM, first compound 0.000949 µM
[26] = second compound 0.0949 µM, first compound 0.003 µM
[27] = second compound 0.0949 µM, first compound 0.00949 µM
[28] = second compound 0.0949 µM, first compound 0.03 µM
[29] = second compound 0.0949 µM, first compound 0.0949 µM
[30] = second compound 0.0949 µM, first compound 0.3 µM
[31] = second compound 0.3 µM, first compound 0.000949 µM
[32] = second compound 0.3 µM, first compound 0.003 µM
[33] = second compound 0.3 µM, first compound 0.00949 µM
[34] = second compound 0.3 µM, first compound 0.03 µM
[35] = second compound 0.3 µM, first compound 0.0949 µM
[36] = second compound 0.3 µM, first compound 0.3 µM
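For viability, T/C in this document: spheroids exposed to agents for seven days before readout; 100% = DMSO vehicle control wells.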

## CC1(C)CCC(Nc2ncc(C(F)(F)F)c(-c3c[nH]c4c(P(C)(C)=O)c(C#N)ccc34)n2)CN1 (centres undefined) + CCn1c(-c2cccnc2C(C)OC)c2c3cc(ccc31)N1CCOC(CC(NC(=O)C(C(C)C)N(C)C(=O)C3(F)CCN(C(=O)C#CC(C)(C)N(C)C)CC3)C(=O)N3CCCC(N3)C(=O)OCC(C)(C)C2)C1
Second compound 0.000949 µM
  IC50: 25.9 nM
Second compound 0.003 µM
  IC50: 20.1 nM
Second compound 0.00949 µM
  IC50: 21.6 nM
Second compound 0.03 µM
  IC50: 26.8 nM
Second compound 0.0949 µM
  IC50: 22.5 nM
Second compound 0.3 µM
  IC50: 18.8 nM
[1]
  viability, T/C: 105%
[2]
  viability, T/C: 75.8%
[3]
  viability, T/C: 62.9%
[4]
  viability, T/C: 52.4%
[5]
  viability, T/C: 34%
[6]
  viability, T/C: 15.1%
[7]
  viability, T/C: 112%
[8]
  viability, T/C: 78.6%
[9]
  viability, T/C: 61.3%
[10]
  viability, T/C: 43.4%
[11]
  viability, T/C: 37.8%
[12]
  viability, T/C: 15.5%
[13]
  viability, T/C: 98.1%
[14]
  viability, T/C: 86.6%
[15]
  viability, T/C: 61.9%
[16]
  viability, T/C: 41%
[17]
  viability, T/C: 34.4%
[18]
  viability, T/C: 15%
[19]
  viability, T/C: 104%
[20]
  viability, T/C: 88.2%
[21]
  viability, T/C: 64.7%
[22]
  viability, T/C: 46.5%
[23]
  viability, T/C: 36.2%
[24]
  viability, T/C: 20.2%
[25]
  viability, T/C: 100%
[26]
  viability, T/C: 75.6%
[27]
  viability, T/C: 59.8%
[28]
  viability, T/C: 47.4%
[29]
  viability, T/C: 35.6%
[30]
  viability, T/C: 20.6%
[31]
  viability, T/C: 79.3%
[32]
  viability, T/C: 71.8%
[33]
  viability, T/C: 57.1%
[34]
  viability, T/C: 43.5%
[35]
  viability, T/C: 37.4%
[36]
  viability, T/C: 28.4%

## CCc1c2c(nc3ccc(O)cc13)-c1cc3c(c(=O)n1C2)COC(=O)[C@]3(O)CC + CCn1c(-c2cccnc2C(C)OC)c2c3cc(ccc31)N1CCOC(CC(NC(=O)C(C(C)C)N(C)C(=O)C3(F)CCN(C(=O)C#CC(C)(C)N(C)C)CC3)C(=O)N3CCCC(N3)C(=O)OCC(C)(C)C2)C1
Second compound 0.000949 µM
  IC50: 19.5 nM
Second compound 0.003 µM
  IC50: 19.9 nM
Second compound 0.00949 µM
  IC50: 33.6 nM
Second compound 0.03 µM
  IC50: 33.6 nM
Second compound 0.0949 µM
  IC50: 15.7 nM
Second compound 0.3 µM
  IC50: 17.2 nM
[1]
  viability, T/C: 93.4%
[2]
  viability, T/C: 72%
[3]
  viability, T/C: 56.4%
[4]
  viability, T/C: 46.1%
[5]
  viability, T/C: 39.9%
[6]
  viability, T/C: 32.3%
[7]
  viability, T/C: 95.3%
[8]
  viability, T/C: 69.1%
[9]
  viability, T/C: 57.8%
[10]
  viability, T/C: 46.7%
[11]
  viability, T/C: 42.2%
[12]
  viability, T/C: 31.1%
[13]
  viability, T/C: 93.8%
[14]
  viability, T/C: 78.3%
[15]
  viability, T/C: 61.4%
[16]
  viability, T/C: 53.6%
[17]
  viability, T/C: 39.1%
[18]
  viability, T/C: 30.8%
[19]
  viability, T/C: 93.7%
[20]
  viability, T/C: 83.6%
[21]
  viability, T/C: 59.1%
[22]
  viability, T/C: 52.7%
[23]
  viability, T/C: 41.9%
[24]
  viability, T/C: 29.7%
[25]
  viability, T/C: 88.3%
[26]
  viability, T/C: 66.8%
[27]
  viability, T/C: 54.1%
[28]
  viability, T/C: 45.4%
[29]
  viability, T/C: 39.1%
[30]
  viability, T/C: 31.5%
[31]
  viability, T/C: 71.1%
[32]
  viability, T/C: 66.5%
[33]
  viability, T/C: 52.8%
[34]
  viability, T/C: 42.9%
[35]
  viability, T/C: 42.8%
[36]
  viability, T/C: 32.2%
